{"source": "paper PMC10028790", "about": "(bioRxiv, 2023)", "key": {"[1]": {"tested_on": "CB1R", "conditions": "cited from earlier work"}, "[2]": {"target": "T1, GRABeCB2.0 (Homo sapiens, UniProt P21554)", "experiment": "cell-based", "conditions": "for Effect on GRABeCB2.0 fluorescent signal: products of 2-AG hydrolysis"}, "[3]": {"target": "T1, GRABeCB2.0", "experiment": "cell-based", "type": "cell-based"}, "[4]": {"conditions": "adult mice, intraperitoneal 5 mg/kg; ref 44;45; cited from earlier work"}, "[5]": {"conditions": "read-out: EC50 for activation of CB1Rs"}, "[6]": {"conditions": "applied at a concentration that approaches the EC50"}, "[7]": {"conditions": "concentration-dependent responses"}, "[8]": {"conditions": "read-out: EC50, potency at CB1R"}}, "note": "Several values for one entry are separate records, joined by “and”; a condition that tells them apart may be missing. Equal values may be shown once. Entries after “also recorded” stand apart in the source; their conditions may differ. Read-outs that look alike come from different tables or passages of the source."}
{"smiles": "CCCCC/C=C\\C/C=C\\C/C=C\\C/C=C\\CCCC(=O)OCC(O)CO", "note": "(stereo not drawn) [1-AG, 1-arachidonoylglycerol]", "values": [{"measurement": "EC50", "setting": "[1]; read-out: EC50 at CB1R, ref 29;40;41", "value": "1000 to 1900", "unit": "nM"}, {"measurement": "Antagonism of agonist response by SR1 100 nM", "setting": "[2]", "value": "strongly antagonized"}, {"measurement": "Antagonism of agonist response by SR1 300 nM", "setting": "[2]", "value": "strongly antagonized"}, {"measurement": "EC50", "setting": "[2]", "value": 1800, "unit": "nM"}, {"measurement": "Effect of SR1 pre-treatment on agonist-stimulated GRABeCB2.0 activation", "setting": "[2]", "value": "reduced"}, {"measurement": "Initial inflection time point", "setting": "[2]", "value": "≤ 1", "unit": "min"}, {"measurement": "Kinetics of fluorescent signal increase", "setting": "[2]", "value": "rapid increases in fluorescent signal that were followed by slow decays"}]}
{"smiles": "CCCCC/C=C\\C/C=C\\C/C=C\\C/C=C\\CCCC(=O)OC(CO)CO", "note": "[2-AG, 2-arachidonoylglycerol]", "values": [{"measurement": "Antagonism response: t (decay following SR1 treatment)", "setting": "[3]", "value": 42.7, "unit": "s"}, {"measurement": "Decay of agonist response antagonized by SR1", "setting": "[3]", "value": 43, "unit": "s"}, {"measurement": "Maximal response: peak", "setting": "[3]; 2-AG 1 μM, AEA 10 μM, CP 1 μM", "value": 2.5, "unit": "DF/F0"}, {"measurement": "Overall response (area under the curve)", "setting": "[3]; 2-AG 1 μM, AEA 10 μM, CP 1 μM", "value": 649}, {"measurement": "Emax", "setting": "[3]; HEK293, read-out: Peak response greater than the CP maximal response", "value": "47 to 58", "unit": "%"}, {"measurement": "Initial response: slope", "setting": "[3]; slope of fluorescent signal increase within first 20 sec after start of agonist, 2-AG 1 μM, AEA 10 μM, CP 1 μM", "value": "6.6 × 10^−2 DF/F0/sec"}, {"measurement": "EC50", "setting": "[1]; read-out: EC50, reported potency at CB1R", "value": "[…]"}, {"measurement": "EC50", "setting": "[1]; [5]", "value": "[…]"}, {"measurement": "Antagonism of agonist response by SR1 100 nM", "setting": "[2]", "value": "partial antagonized"}, {"measurement": "Effect of SR1 pre-treatment on agonist-stimulated GRABeCB2.0 activation", "setting": "[2]", "value": "significantly reduced"}, {"measurement": "GRABeCB2.0 fluorescent signal at 0 sec over basal", "setting": "[2]; 2-AG 10 nM", "value": "0.19 ΔF/F0"}, {"measurement": "Initial inflection point", "setting": "[2]; 2-AG 10 nM", "value": 0.66, "unit": "min"}, {"measurement": "GRABeCB2.0 fluorescent signal at 0 sec over basal", "setting": "[2]; 2-AG 100 nM", "value": "0.96 ΔF/F0"}, {"measurement": "Initial inflection point", "setting": "[2]; 2-AG 100 nM", "value": 0.33, "unit": "min"}, {"measurement": "Inflection point", "setting": "[2]; 2-AG 3 μM (strongest response)", "value": "≈ 0.66 min"}, {"measurement": "Kinetics of fluorescent signal increase", "setting": "[2]; [6]", "value": "rapid increases in fluorescent signal that were followed by slow decays"}]}
{"smiles": "CCCCC/C=C\\C/C=C\\CCCCCCCC(=O)OC(CO)CO", "note": "[2-LG, 2-linoleoylglycerol]", "values": [{"measurement": "EC50", "setting": "[1]; read-out: EC50, partial activation of CB1R, ref 11;12", "value": 16600, "unit": "nM"}, {"measurement": "EC50", "setting": "[1]; read-out: EC50 to activate CB1R, discussion, no reference given", "value": "~25000", "unit": "nM"}, {"measurement": "Antagonism of agonist response by SR1 100 nM", "setting": "[2]", "value": "partial antagonized"}, {"measurement": "EC50", "setting": "[2]", "value": 1500, "unit": "nM"}, {"measurement": "Effect of SR1 pre-treatment on agonist-stimulated GRABeCB2.0 activation", "setting": "[2]", "value": "reduced"}, {"measurement": "Kinetics of fluorescent signal increase", "setting": "[2]; [6]", "value": "rapid increases in fluorescent signal that were followed by slow decays"}, {"measurement": "Initial inflection time point", "setting": "[2]; [7]", "value": "≤ 1", "unit": "min"}]}
{"smiles": "CCCCCCCC/C=C\\CCCCCCCC(=O)OC(CO)CO", "note": "[2-OG, 2-oleoylglycerol]", "values": [{"measurement": "Antagonism of agonist response by SR1 100 nM", "setting": "[2]", "value": "strongly antagonized"}, {"measurement": "Antagonism of agonist response by SR1 300 nM", "setting": "[2]", "value": "strongly antagonized"}, {"measurement": "EC50", "setting": "[2]", "value": 1000, "unit": "nM"}, {"measurement": "Effect of SR1 pre-treatment on agonist-stimulated GRABeCB2.0 activation", "setting": "[2]", "value": "reduced"}, {"measurement": "Kinetics of fluorescent signal increase", "setting": "[2]; [6]", "value": "rapid increases in fluorescent signal that were followed by slow decays"}, {"measurement": "Initial inflection time point", "setting": "[2]; [7]", "value": "≤ 1", "unit": "min"}]}
{"smiles": "CCCCC/C=C\\C/C=C\\C/C=C\\C/C=C\\CCCC(=O)NCCO", "note": "[AEA, arachidonoyl ethanolamine]", "values": [{"measurement": "EC50", "setting": "[1]; [8]", "value": "69 to 276", "unit": "nM"}, {"measurement": "EC50", "setting": "[1]; [5]", "value": "10 to 100", "unit": "nM"}]}
{"smiles": "C=C(C)[C@@H]1CCC(C)=C[C@H]1c1c(O)cc(CCCCC)cc1O", "note": "[CBD, Cannabidiol]", "values": [{"measurement": "Effect on basal GRABeCB2.0 fluorescent signal", "setting": "[2]; CBD 0.1 nM to 3 μM (legend: 100 pM-10 μM)", "value": "did not affect; also recorded: does not modulate; also recorded: did not significantly modulate"}, {"measurement": "Reduction of 2-AG-induced increase in GRABeCB2.0 fluorescent signal", "setting": "[2]; at 1 μM", "value": 26, "unit": "%"}]}
{"smiles": "CCCCCCC(C)(C)c1ccc([C@@H]2C[C@H](O)CC[C@H]2CCCO)c(O)c1", "note": "[CP]", "values": [{"measurement": "Antagonism response: t (decay following SR1 treatment)", "setting": "[3]", "value": 24.3, "unit": "s"}, {"measurement": "Decay of agonist response antagonized by SR1", "setting": "[3]", "value": 24, "unit": "s"}, {"measurement": "Initial response: slope", "setting": "[3]", "value": "4.5 × 10^−2 DF/F0/sec"}, {"measurement": "Maximal response: peak", "setting": "[3]", "value": 1.7, "unit": "DF/F0"}, {"measurement": "EC50", "setting": "[1]; [8]", "value": "[…]"}, {"measurement": "Antagonism of agonist response by SR1 100 nM", "setting": "[2]", "value": "partial antagonized"}, {"measurement": "Antagonism of agonist response by SR1 300 nM", "setting": "[2]", "value": "more than 80%"}, {"measurement": "Effect of SR1 pre-treatment on agonist-stimulated GRABeCB2.0 activation", "setting": "[2]", "value": "significantly reduced"}, {"measurement": "Initial inflection time point", "setting": "[2]", "value": "≤ 1.33", "unit": "min"}, {"measurement": "Kinetics of fluorescent signal increase", "setting": "[2]", "value": "progressive increases in fluorescent signal that did not reach peak response within 5 min"}, {"measurement": "Maximal GRABeCB2.0 response as percent of the 2-AG response", "setting": "[2]", "value": 71, "unit": "%"}]}
{"smiles": "CCCCC/C=C\\C/C=C\\C/C=C\\C/C=C\\CCCC(=O)O", "note": "[arachidonic acid]", "values": [{"measurement": "Effect on GRABeCB2.0 fluorescent signal", "setting": "[2]", "value": "did not influence"}]}
{"smiles": "OCC(O)CO", "note": "[glycerol]", "values": [{"measurement": "Effect on GRABeCB2.0 fluorescent signal", "setting": "[2]", "value": "did not influence"}]}
{"smiles": "CCCCCc1cc(O)c2c(c1)OC(C)(C)[C@@H]1CCC(C)=C[C@@H]21", "note": "[Δ^9-THC, Δ^9-tetrahydrocannabinol]", "values": [{"measurement": "THC in mouse brain", "setting": "[4]", "value": "≈ 10 ng/ml and 31.8 nM"}]}
